Article PMC9598367, “Discovery and Preliminary Structure-Activity Investigation of 3-Substituted-1H-imidazol-5-yl-1H-indoles with In Vitro Activity towards Methicillin-Resistant Staphylococcus aureus” (Antibiotics, 2022)
In brackets after ≈: the same amount, converted by molar mass.

System: Cryptococcus neoformans ATCC208821
Test: Antifungal MIC, C. neoformans
Assay type: cell-based
Settings: Cryptococcus neoformans ATCC208821; mean (n = 2)
Protocol: For the antifungal assay, fungi strains were cultured for 3 days on yeast extract-peptone dextrose (YPD) agar at 30 °C. A yeast suspension of 1 × 10^6 to 5 × 10^6 CFU/mL was prepared from five colonies. These stock suspensions were diluted with yeast nitrogen base (YNB) (Becton Dickinson, 233520) broth to a final concentration of 2.5 × 10^3 CFU/mL. The compounds were serially diluted 2-fold across the wells of 96-well plates (Corning 3641, nonbinding surface), with compound concentrations ranging from 0.015 to 64 μg/mL and final volumes of 50 μL, plated in duplicate. Then, 50 μL of the fungi suspension that was previously prepared in YNB broth to the final concentration of 2.5 × 10^3 CFU/mL was added to each well of the compound-containing plates, giving a final compound concentration range of 0.008 to 32 μg/mL. Plates were covered and incubated at 35 °C for 36 h without shaking. C. albicans MICs were determined by measuring the absorbance at OD530. For C. neoformans, resazurin was added at 0.006% final concentration to each well and incubated for a further 3 h before MICs were determined by measuring the absorbance at OD570–600.
Colistin and vancomycin were used as positive bacterial inhibitor standards for Gram-negative and Gram-positive bacteria, respectively. Fluconazole was used as a positive fungal inhibitor standard for C. albicans and C. neoformans. The antibiotics were provided in 4 concentrations, with 2 above and 2 below its MIC value, and plated into the first 8 wells of column 23 of the 384-well NBS plates. The quality control (QC) of the assays was determined by the antimicrobial controls and the Z′-factor (using positive and negative controls).

MIC	Molecule
8 mg/L (≈ 26.1 µM)	OC(Cn1cncn1)(Cn1cncn1)c1ccc(F)cc1F [fluconazole, reference compound]

System: not given
Test: not given
Settings: not given

melting point	Molecule
92 to 93 °C	COc1ccc(Cn2cncc2-c2c[nH]c3cccc(Br)c23)cc1 [Compound 63, 4-Bromo-3-(1-(4-methoxybenzyl)-1H-imidazol-5-yl)-1H-indole]
83 to 84 °C	COc1ccc(-c2cncn2Cc2ccccc2)cc1 [Compound 104, 1-Benzyl-5-(4-methoxyphenyl)-1H-imidazole]
45 to 46 °C	COc1ccc(CCn2cncc2-c2c[nH]c3cc(OC)ccc23)cc1 [Compound 72, 6-Methoxy-3-(1-(4-methoxyphenethyl)-1H-imidazol-5-yl)-1H-indole]
> 200 °C	Ic1ccc(Cn2cncc2-c2c[nH]c3ccccc23)cc1 [Compound 4, 3-(1-(4-Iodobenzyl)-1H-imidazol-5-yl)-1H-indole]
> 200 °C	Clc1ccc2[nH]cc(-c3cncn3Cc3ccc(I)cc3)c2c1 [Compound 7, 5-Chloro-3-(1-(4-iodobenzyl)-1H-imidazol-5-yl)-1H-indole]
130 to 131 °C	COc1ccc(OC)c(CCn2cncc2-c2c[nH]c3cc(F)ccc23)c1 [Compound 31, 3-(1-(2,5-Dimethoxyphenethyl)-1H-imidazol-5-yl)-6-fluoro-1H-indole]
180 to 181 °C	Clc1ccc2c(-c3cncn3CCc3ccc4c(c3)OCO4)c[nH]c2c1 [Compound 40, 3-(1-(2-(Benzo[d][1,3]dioxol-5-yl)ethyl)-1H-imidazol-5-yl)-6-chloro-1H-indole]
152 to 153 °C	COc1ccc(CCn2cncc2-c2c[nH]c3ccc(F)cc23)cc1 [Compound 24, 5-Fluoro-3-(1-(4-methoxyphenethyl)-1H-imidazol-5-yl)-1H-indole]
76 to 77 °C	COc1ccc(CCn2cncc2-c2c[nH]c3cccc(Cl)c23)cc1 [Compound 68, 4-Chloro-3-(1-(4-methoxyphenethyl)-1H-imidazol-5-yl)-1H-indole]
78 to 79 °C	Clc1ccc2[nH]cc(-c3cncn3Cc3ccccc3)c2c1 [Compound 46, 3-(1-Benzyl-1H-imidazol-5-yl)-5-chloro-1H-indole]
> 200 °C	Brc1ccc2c(-c3cncn3Cc3ccc(I)cc3)c[nH]c2c1 [Compound 10, 6-Bromo-3-(1-(4-iodobenzyl)-1H-imidazol-5-yl)-1H-indole]
178 to 179 °C	COc1ccc(Cn2cncc2-c2c[nH]c3cc(Cl)ccc23)cc1 [Compound 15, 6-Chloro-3-(1-(4-methoxybenzyl)-1H-imidazol-5-yl)-1H-indole]
220 to 221 °C	COc1ccc(Cn2cncc2-c2c[nH]c3c(Cl)cccc23)cc1 [Compound 62, 7-Chloro-3-(1-(4-methoxybenzyl)-1H-imidazol-5-yl)-1H-indole]
81 to 82 °C	COc1ccc2c(-c3cncn3CCc3c[nH]c4ccccc34)c[nH]c2c1 [Compound 88, 3-(1-(2-(1H-Indol-3-yl)ethyl)-1H-imidazol-5-yl)-6-methoxy-1H-indole]
198 to 199 °C	Clc1cccc2[nH]cc(-c3cncn3Cc3ccccc3)c12 [Compound 45, 3-(1-Benzyl-1H-imidazol-5-yl)-4-chloro-1H-indole]
133 to 134 °C	COc1ccc(OC)c(CCn2cncc2-c2c[nH]c3cc(Br)ccc23)c1 [Compound 35, 6-Bromo-3-(1-(2,5-dimethoxyphenethyl)-1H-imidazol-5-yl)-1H-indole]
187 to 188 °C	Fc1ccc2[nH]cc(-c3cncn3Cc3ccc(I)cc3)c2c1 [Compound 5, 5-Fluoro-3-(1-(4-iodobenzyl)-1H-imidazol-5-yl)-1H-indole]
197 to 198 °C	COc1ccc(Cn2cncc2-c2c[nH]c3ccc(Br)cc23)cc1 [Compound 16, 5-Bromo-3-(1-(4-methoxybenzyl)-1H-imidazol-5-yl)-1H-indole]
169 to 170 °C	COc1ccc(-c2cncn2CCc2c[nH]c3ccccc23)cc1 [Compound 114, 3-(2-(5-(4-Methoxyphenyl)-1H-imidazol-1-yl)ethyl)-1H-indole]
83 to 84 °C	COc1ccc(CCn2cncc2-c2c[nH]c3cccc(Br)c23)cc1 [Compound 70, 4-Bromo-3-(1-(4-methoxyphenethyl)-1H-imidazol-5-yl)-1H-indole]
59 to 60 °C	COc1ccc(CCn2cncc2-c2c[nH]c3c(Cl)cccc23)cc1 [Compound 69, 7-Chloro-3-(1-(4-methoxyphenethyl)-1H-imidazol-5-yl)-1H-indole]
95 to 96 °C	COc1ccc2c(-c3cncn3Cc3c[nH]c4ccccc34)c[nH]c2c1 [Compound 80, 3-(1-((1H-Indol-3-yl)methyl)-1H-imidazol-5-yl)-6-methoxy-1H-indole]

More lines, now with the values behind:

Molecule	melting point
Fc1cccc2c(-c3cncn3CCc3ccccc3)c[nH]c12 [Compound 52, 7-Fluoro-3-(1-phenethyl-1H-imidazol-5-yl)-1H-indole]	45 to 46 °C
Brc1cccc2[nH]cc(-c3cncn3CCc3c[nH]c4ccccc34)c12 [Compound 86, 3-(1-(2-(1H-Indol-3-yl)ethyl)-1H-imidazol-5-yl)-4-bromo-1H-indole]	> 230 °C
Brc1ccc2[nH]cc(-c3cncn3CCc3ccc4c(c3)OCO4)c2c1 [Compound 41, 3-(1-(2-(Benzo[d][1,3]dioxol-5-yl)ethyl)-1H-imidazol-5-yl)-5-bromo-1H-indole]	176 to 177 °C
CCCCCn1cncc1-c1c[nH]c2c(F)cccc12	164 to 165 °C
Fc1cccc2c(-c3cncn3Cc3c[nH]c4ccccc34)c[nH]c12 [Compound 74, 3-(1-((1H-Indol-3-yl)methyl)-1H-imidazol-5-yl)-7-fluoro-1H-indole]	186 to 187 °C
Clc1ccc2[nH]cc(-c3cncn3CCc3ccc4c(c3)OCO4)c2c1 [Compound 39, 3-(1-(2-(Benzo[d][1,3]dioxol-5-yl)ethyl)-1H-imidazol-5-yl)-5-chloro-1H-indole]	> 200 °C
Clc1cccc2c(-c3cncn3Cc3c[nH]c4ccccc34)c[nH]c12 [Compound 77, 3-(1-((1H-Indol-3-yl)methyl)-1H-imidazol-5-yl)-7-chloro-1H-indole]	165 to 166 °C
CCCCCn1cncc1-c1c[nH]c2cccc(F)c12	147 to 148 °C
Clc1cccc2[nH]cc(-c3cncn3Cc3c[nH]c4ccccc34)c12 [Compound 75, 3-(1-((1H-Indol-3-yl)methyl)-1H-imidazol-5-yl)-4-chloro-1H-indole]	195 to 196 °C
c1ccc(-c2cncn2CCc2c[nH]c3ccccc23)cc1 [Compound 113, 3-(2-(5-Phenyl-1H-imidazol-1-yl)ethyl)-1H-indole]	155 to 156 °C
Fc1ccc2c(-c3cncn3CCc3ccc4c(c3)OCO4)c[nH]c2c1 [Compound 38, 3-(1-(2-(Benzo[d][1,3]dioxol-5-yl)ethyl)-1H-imidazol-5-yl)-6-fluoro-1H-indole]	188 to 189 °C
Fc1cccc2c(-c3cncn3CCc3c[nH]c4ccccc34)c[nH]c12 [Compound 82, 3-(1-(2-(1H-Indol-3-yl)ethyl)-1H-imidazol-5-yl)-7-fluoro-1H-indole]	> 230 °C
Brc1cccc2[nH]cc(-c3cncn3Cc3ccccc3)c12 [Compound 48, 3-(1-Benzyl-1H-imidazol-5-yl)-4-bromo-1H-indole]	201 to 202 °C
Clc1cccc2c(-c3cncn3CCc3ccccc3)c[nH]c12 [Compound 54, 7-Chloro-3-(1-phenethyl-1H-imidazol-5-yl)-1H-indole]	47 to 48 °C
Fc1ccc2[nH]cc(-c3cncn3CCc3ccc4c(c3)OCO4)c2c1 [Compound 37, 3-(1-(2-(Benzo[d][1,3]dioxol-5-yl)ethyl)-1H-imidazol-5-yl)-5-fluoro-1H-indole]	> 200 °C
Fc1cccc2[nH]cc(-c3cncn3Cc3c[nH]c4ccccc34)c12 [Compound 73, 3-(1-((1H-Indol-3-yl)methyl)-1H-imidazol-5-yl)-4-fluoro-1H-indole]	164 to 165 °C

System: human red blood cells
Test: Hemolytic assay
Assay type: cell-based
Settings: concentration at 10% hemolytic activity on human red blood cells; mean (n = 2)
Protocol: Human whole blood was washed three times with 3 volumes of 0.9% NaCl and then resuspended in same to a concentration of 0.5 × 10^8 cells/mL, as determined by manual cell count in a Neubauer hemocytometer. The washed cells were then added to the 384-well compound-containing plates for a final volume of 50 μL. After a 10 min shake on a plate shaker the plates were then incubated for 1 h at 37 °C. After incubation, the plates were centrifuged at 1000 g for 10 min to pellet cells and debris, 25 μL of the supernatant was then transferred to a polystyrene 384-well assay plate. Hemolysis was determined by measuring the supernatant absorbance at […] (OD405). The absorbance was measured using a Tecan M1000 Pro monochromator plate reader. HC10 and HC50 (concentration at 10% and 50% hemolysis, respectively) were calculated by curve fitting the inhibition values vs. log(concentration) using a sigmoidal dose–response function with variable fitting values for top, bottom and slope.

Molecule	HC10
Melittin [reference compound]	2.7 µg/mL
